Test results taken from PMC6207720, “Identification and antitumor activity of a novel inhibitor of the NIMA-related kinase NEK6” (Scientific Reports, 2018).

Assays:
NEK6 = target: T1, NEK6 (Homo sapiens, UniProt Q9HC98); assay: LANCE-Ultra NEK6 kinase assay; type: biochemical; conditions: 100 µM ATP
T1 construct: purchased Carna 05-130
Experimental: The twenty-five compounds resulting from virtual screening were firstly tested for the ability to inhibit the enzymatic activity of NEK6 at a single concentration of 30 µM, using LANCE technology. Quercetin, able to inhibit a broad panel of kinase, was used as positive control of inhibition[12],[30]. This initial screening allowed the identification of two compounds determining >70% NEK6 inhibition at 30 µM, i.e. compound 8 (6-hydroxy-4-methyl-2-oxo-5-[(5-phenyl (2-furyl)) methylene] pyridine-3-carbonitrile), and 21 (6-amino-2-phenyl-5,7,9-triazatetracyclo[8.7.0.0^3,^8 0^11,^16]heptadeca-1(10),3(8),6,11,13,15 hexaene-4,17-dione) (Fig. 4). […] The possible binding mode of compound 8 in the ATP-binding site of NEK6 as well as nonbonded interactions across the complex interface are shown in Fig. 6. Compound 8 may use its phenyl ring and furyl ring to form hydrophobic Pi-alkyl interactions with Ala72 (strand β3), Ala125 (hinge region) and Val59 (strand β2) of the ATP binding site (Fig. 6B). […] This is particulary relevant when considering that C–H···O hydrogen bonds play an important role in the ligand-binding process[33]–[35].
Compounds (i.e. 1 to 25) (Molport, Riga, LV-1011, Latvia) were dissolved in DMSO 100% as 10 mM stock and stored at −20 C. Activity of the compounds as NEK6 inhibitors was tested using LANCE NEK6 Ultra Kinase Assays protocol (U-TRF #25 technical note, PerkinElmer, Monza, MB). Compounds were first tested at 30 µM and incubated with 4 nM NEK6 (Carna, Chuo-ku, Kobe, Japan, # 05-130), 50 nM ULight-p70 S6K Peptide (PerkinElmer # TRF0126) and 100 μM ATP (Sigma-Aldrich, Saint Louis, U.S.A, # A2383) at room temperature. Kinase reactions were terminated after 90 minutes by the addition of EDTA and the signal was read with the Enspire plate reader (PerkinElmer) in TR-FRET mode (excitation at 320 nm and emission at 665 nm) after 60 minutes. Inhibition of NEK6 activity was calculated as percentage with respect to the control sample (100% of activity). Quercetin was used as positive control (Molport). […] For each compound the dose inhibiting 50% of NEK6 activity (IC50) was calculated using the GraphPad Prism 5.0 Software (San Diego, CA, USA).

NEK2 = target: T2, NEK2 (Homo sapiens, UniProt P51955); assay: Off-chip Mobility Shift Assay (MSA) profiling, NEK2; type: biochemical; conditions: ATP approximating Km
T2 sequence (P51955 1-445): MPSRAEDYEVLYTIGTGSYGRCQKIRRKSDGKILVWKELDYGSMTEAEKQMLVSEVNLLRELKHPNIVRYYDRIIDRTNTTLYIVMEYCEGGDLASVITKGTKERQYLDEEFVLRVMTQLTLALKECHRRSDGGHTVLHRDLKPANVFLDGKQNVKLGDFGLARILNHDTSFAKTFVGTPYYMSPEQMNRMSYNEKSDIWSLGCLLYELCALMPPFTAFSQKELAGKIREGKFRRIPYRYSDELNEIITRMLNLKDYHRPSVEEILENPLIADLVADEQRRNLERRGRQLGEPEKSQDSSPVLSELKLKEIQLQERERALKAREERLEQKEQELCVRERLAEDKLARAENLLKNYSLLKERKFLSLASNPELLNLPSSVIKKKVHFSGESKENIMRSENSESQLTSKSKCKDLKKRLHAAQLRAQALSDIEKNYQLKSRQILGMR
Experimental: (§1) Therefore, we decided to evaluate the selectivity of compound 8 against a panel of NEK kinases at 10 µM, using the technique of Off-chip Mobility shift assay. This concentration was chosen according to the guidelines proposed by Knight and Shokat, since the probability of off-target effects increases dramatically above 10 µM[36]. Furthermore, ATP concentration was set to approximate the Km,ATP for each kinase, so that the resulting selectivity profile directly reflects the intrinsic affinities of the inhibitor[37]. […] A major consequence of this substitution may be the redistribution of surface charges at the flexible activation loop resulting in an altered electrostatic potential and ability of NEK6 kinase to interact with other molecules.
(§2) The inhibitory activity of compounds 8 and 21 on NEK6 was also verified with MSA technique (Off-chip Mobility shift assay) (CARNA Biosciences Study ID: CBS170097, CARNA Biosciences, Kobe). […] PKR Inhibitor was used as positive control. For profiling study against NEK kinases (i.e. NEK1, NEK2, NEK6, NEK7, NEK9) (CARNA Biosciences Study ID: CBS170098), 8 was tested at 10 μM and ATP concentration approximating Km for each kinase. Assay condition for kinases are available on “Kinase profiling book” downloading by www.carnabio.com (https://www.carnabio.com/output/pdf/ProfilingProfilingBook_en.pdf).

NEK7 = NEK7 (Homo sapiens, UniProt Q8TDX7); assay: Off-chip Mobility Shift Assay (MSA) profiling, NEK7; type: biochemical; conditions: ATP approximating Km
NEK7, sequence (Q8TDX7 whole entry): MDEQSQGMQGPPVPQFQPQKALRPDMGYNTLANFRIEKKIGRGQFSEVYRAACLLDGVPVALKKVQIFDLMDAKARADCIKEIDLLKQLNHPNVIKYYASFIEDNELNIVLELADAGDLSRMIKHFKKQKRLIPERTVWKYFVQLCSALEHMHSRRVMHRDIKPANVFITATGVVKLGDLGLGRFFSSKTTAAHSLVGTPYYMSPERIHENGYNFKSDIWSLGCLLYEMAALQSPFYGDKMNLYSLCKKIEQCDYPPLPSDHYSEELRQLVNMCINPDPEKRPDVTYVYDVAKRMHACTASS
Experimental: as §1, §2

MDA-MB-231 (breast) = assay: Cell-based cytotoxicity assay (ATPlite), MDA-MB-231; conditions: Homo sapiens, MDA-MB-231, 72 h, NA = not active (IC50 greater than 100 µM), read-out: IC50 Values (µM ± SEM)
Excerpt: (§3) The following human carcinoma cell lines were used for the study: MDA-MB-231 and MCF-7 (breast cancer; ATCC, Sesto San Giovanni, MI), PEO1 and COV318 (ovarian cancer; ECACC, Salisbury, UK and ATCC), HCT-15 and SW948 (colon cancer; Public Health England, Salisbury, UK and ATCC), NCI-H1975 and NCI-H1299, (lung cancer; ATCC). Cells were routinely tested free of mycoplasma (MycoAlert mycoplasma detection kit, LONZA, Rockland, ME, USA) and validated by STR (Short Tandem Repeat) DNA profiling (BMR Genomics srl, PD). Cells were grown following supplier indication, in a fully humidified atmosphere of 5% CO2/95% air. All the reagents were purchased from Sigma-Aldrich (St. Louis, MO), if not otherwise specified.

NCI-H1299 (lung) = assay: Cell-based cytotoxicity assay (ATPlite), NCI-H1299; conditions: Homo sapiens, NCI-H1299, 72 h, NA = not active (IC50 greater than 100 µM), read-out: IC50 Values (µM ± SEM)
Excerpt: as §3

T1 sequence (Q9HC98 whole entry): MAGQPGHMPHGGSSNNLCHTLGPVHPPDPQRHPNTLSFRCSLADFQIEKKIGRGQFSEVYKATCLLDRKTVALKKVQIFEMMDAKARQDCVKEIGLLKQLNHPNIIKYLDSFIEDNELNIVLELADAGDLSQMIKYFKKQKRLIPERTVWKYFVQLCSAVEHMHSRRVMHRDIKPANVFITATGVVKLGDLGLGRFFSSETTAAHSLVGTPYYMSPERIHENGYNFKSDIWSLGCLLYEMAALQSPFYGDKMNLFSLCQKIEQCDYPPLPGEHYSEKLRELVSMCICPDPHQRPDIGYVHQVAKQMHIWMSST

CC1=C(C#N)C(O)=NC(=O)/C1=C\c1ccc(-c2ccccc2)o1 [Compound 8, (5Z)-2-hydroxy-4-methyl-6-oxo-5-[(5-phenylfuran-2-yl)methylidene]-5,6-dihydropyridine-3-carbonitrile]
IC50 (NEK6; LANCE-Ultra, mean ± SEM of 4 independent experiments): 3.4 ± 1.2 µM
inhibition at 30 µM (NEK6; single concentration 30 µM, LANCE): > 70%
inhibition at 10 µM (NEK2): ≤ 0%
inhibition at 10 µM (NEK7): ≤ 0%
IC50 (MDA-MB-231 (breast)): 65 ± 15 µM
IC50 (NCI-H1299 (lung)): 87.8 ± 10 µM
